US7473708B2, “Agents with leukotriene B4-like antiviral (enveloped RNA) activities” (priority 1996, dated 2009)
Entries after “also recorded” stand apart in the source; their conditions may differ.

What was measured:
EBV [1] = assay: Detection of Epstein-Barr Nuclear Antigen (EBNA) in EBV-infected PBMC (ACIF test); format: cell-based, human; details: 100 nM LTB4, added days 0, 3, 6, 9; ten days of culture
Protocol: After ten days of culture, cells were harvested for determination of the presence of Epstein-Barr Nuclear Antigen (EBNA), a consequence of EBV infection. Preparation of cell smears, fixation and detection of EBNA by the anti-complement immunofluorescence (ACIF) test were carried out as described by Reedman B. M. and Klein G. (Int. J. Cancer, 1973, 11:499). Smears were prepared by spreading 50 μl of a concentrated suspension of washed cells (2×10^6/ml) on clean slides, air dried and fixed in cold acetone (−20° C.) during 10 minutes. Human serum (50 μl) from EBV seropositive donor was used as a source of complement. Slides were incubated at room temperature in a humid chamber during 45 minutes. Slides were then washed three times in phosphate buffer saline (PBS) and stained with 50 μl of fluorescein-5-isothiocyanate (FITC “Isomer I”)-conjugated goat IgG fraction anti-human complement C3 (Cappel Research Products, Durham, N.C.) during 60 minutes at room temperature in a humid chamber. Slides were washed in PBS (3 times), mounted in PBS:glycerol 1:1 and examined. Raji and U937 cells were used as positive and negative controls, respectively. The percentage of EBNA-positive cells was decreased by more than 55% with 30 nM LTB4, and by more than 70% with 100 nM LTB4 (FIG. 2). The results illustrated in FIG. 2 are representative of six (6) other experiments.
(§1) PBMC were infected with EBV and HSV-1 and treated or not with 100 nM of analogs of LTB4 such as 20-OH-LTB4, LTA3 methyl ester, 12(R)-HETE and 5(S), 15(S)-diHETE. After six days of culture, the presence of EBNA antigen (a consequence of EBV infection) was evaluated by the ACIF test, as described in Example I. Similarly, the presence of HSV-1 antigen in PBMC was evaluated by immunofluorescence using an antiserum obtained from a chronically infected donor as described above in section entitled “Detection of Specific HSV-1 Antigen”. […] The results illustrated in Table 1 are representative of three other experiments.

HSV-1 (strain McIntyre) = assay: Detection of specific HSV-1 antigen in HSV-1-infected PBMC (immunofluorescence); format: cell-based, human; details: specific antiserum from a chronically infected donor
Protocol: Synthesis of the viral antigen was inhibited by 60% in the presence of 100 nM LTB4 (FIG. 4). The results illustrated in FIG. 4 are representative of five (5) other experiments.
as §1

HIV (93US151) = assay: HIV infection in vivo, SCID mice reconstituted with human PBMC
HIV-1 strain 89.6 = assay: HIV ex vivo model, human tonsillar tissue, p24 release; format: cell-based; details: tonsil blocks, LTB4 0.01, 0.1 and 1 μM
From the text: An ex vivo model that retains the cellular organization found in normal human lymphoid tissue was used. The selected lymphoid tissues were tonsils. […] Such an ex vivo model is used to study HIV pathogenesis and potency of antiviral agents such as AZT (Zidovudine) by many laboratories.
Human tonsillar tissues from two different individuals were removed during routine tonsillectomy and were received within five hours of excision. The tonsils were washed thoroughly with medium supplemented with antibiotics and then sectioned into 2-3 mm blocks. These tissue blocks were placed in culture medium at the air-liquid interface on the top surface of collagen sponge gels and were pretreated for 10 min with the indicated concentrations of LTB4 (0.01, 0.1 and 1 μM). Next, HIV-1 particles (400 TCID50 of HIV-1 strain 89.6) were applied at the top of each tissue block. The next day, the culture medium was completely removed and replaced with fresh medium supplemented with a final concentration of LTB4 (0.01, 0.1 and 1 μM). This step is necessary in order to remove unadsorbed and uninternalized virus particles. Productive HIV-1 infection was assessed every 3 to 4 days by measuring p24 in the culture medium using a viral core p24 antigen enzyme-linked immunosorbent assay. […]

[2] = test system: coronavirus strain HCoV-OC43; assay: Human coronavirus infection in lungs of mice; format: in vivo; details: for coronavirus viral load in lungs, per mouse: day 6
Protocol: The antiviral effect of LTB4 in controlling pneumonia caused by coronavirus was evaluated in an in vivo model using C57BL/6 mice (8 day old). Mice were infected (n=6/group) intranasally with 10 μl of coronavirus suspension (10^4 PFU, strain HCoV-OC43). Twenty-four hours post-infection, mice were treated intranasally with a placebo or with varying doses of LTB4 (5 ng/dose or 50 ng/dose). Mice were treated once a day during 5 days, and were sacrificed and autopsied on day 6. Lungs of mice were surgically removed and the viral load was titrated on HRT-18 cell line.

[3] = test system: influenza virus (strain A/Pr/8/34); assay: Influenza infection in lungs of mice; format: in vivo; details: LTB4 1, 10 and 100 ng/dose intranasal, days 1 to 5, day 6
Protocol: BALB/c mice (6-8 week old) were infected (n=6/group) by delivering 10 PFU of influenza virus (strain A/Pr/8/34) in the nasal cavity. On days 1 to 5 post-infection, mice were treated intranasally with a placebo or with varying doses of LTB4 (1, 10 and 100 ng/dose). On the 6th day post-infection, all mice were sacrificed and influenza viral loads in lungs were determined using the MDCK cell line.

HSV-1 strain E-377 = assay: HSV-1 infection in vivo, hairless mice
[4] = test system: murine CMV (Smith strain); assay: CMV viral load in infected mice (plaque assay)
Protocol: Six week old BALB/c mice were infected by intravenous injection with 10^4 plaque forming units (PFU) of murine CMV (Smith strain). Mice were divided into two groups: the first group received a placebo while the second group was treated with 25 ng of LTB4, administered intravenously once a day starting on the day of infection. After 12 days of treatment, mice were sacrificed and the lungs and salivary glands harvested. The organs were homogenized, in 0.5 ml of culture medium, to liberate intracellular viral particles. After centrifugation, the cell free supernatants were tested for the presence of CMV particles by standard plaque assay technique. Briefly, serially diluted supernatants were added to a monolayer of mouse embryonic fibroblast cells (highly susceptible to CMV infection) for 1 hour at 37° C. after which the nonadsorbed virus were removed and the monolayer overlaid with 1.5% methylcellulose. After a 5-day incubation, the monolayers were fixed with formaldehyde and stained with violet crystal. The number of plaques, which represents areas of infection equivalent to one viral particle, were counted and the CMV titers in the lungs and salivary glands determined.

EBV [5] = assay: EBV-induced tumor formation in SCID mice given human PBL
[6] = LTB4 10 μg i.p. days 0, 1, 3, 5, 7, 9
[7] = 25 ng LTB4 i.v. once a day, 12 days
[8] = EBV-infected, LTB4 i.p. 10 then 5 μg/mouse, day 42

Structure (SMILES): CCCCC/C=C\C[C@@H](O)/C=C/C=C/C=C\[C@@H](O)CCCC(=O)O [LTB4, 5S,12R-dihydroxy-6,8,10,14 (Z,E,E,Z)-eicosatetraenoic acid]
- decrease of percentage of EBNA-positive cells (EBV [1]): more than 70%
- inhibition of synthesis of HSV-1 antigen (HSV-1 (strain McIntyre)): 75%
- percentage of CD4+ T cell survival versus placebo (HIV (93US151); LTB4 1, 10 or 100 ng/mouse i.p. once a day, day 14 P.I.): significantly increased
- HIV plasma viral loads versus placebo (HIV (93US151); LTB4 i.p. once a day, days 7 and 14 P.I.): reduced
- inhibition of the replicative cycle of HIV-1 (p24 release) (HIV-1 strain 89.6): more than 75%
- coronavirus viral load in lungs, per mouse ([2]; LTB4 5 ng/dose/mouse intranasal once a day 5 days): N.D. (below detection limit of 32 TCID50/lungs)
- coronavirus viral load in lungs, per mouse ([2]; LTB4 50 ng/dose/mouse intranasal once a day 5 days): N.D. (below detection limit of 32 TCID50/lungs)
- number of coronavirus particles in lungs versus placebo ([2]; infected mice): significantly reduces; also recorded: reduced
- influenza titers in the lungs versus placebo [3]: significantly decreased; also recorded: reduced
- course of skin lesions (HSV-1 strain E-377; HSV-1-infected hairless mice, LTB4 i.p.): regressed from day 8; also recorded: smaller and disappeared more rapidly
- Survival at day 14 (HSV-1 strain E-377; HSV-1-infected, LTB4 10 μg i.p.): 100%
- Infection-associated symptoms score, Day 4 (HSV-1 strain E-377; [6]): 0
- Infection-associated symptoms score, Day 6 (HSV-1 strain E-377; [6]): 0
- Infection-associated symptoms score, Day 8 (HSV-1 strain E-377; [6]): 0
- Infection-associated symptoms score, Day 10 (HSV-1 strain E-377; [6]): 0
- Size of infected skin lesions, Day 4 (HSV-1 strain E-377; [6]): ≤ 0.5 cm
- Size of infected skin lesions, Day 6 (HSV-1 strain E-377; [6]): 1-3 cm
- Size of infected skin lesions, Day 8 (HSV-1 strain E-377; [6]): 1-3 cm
- Size of infected skin lesions, Day 10 (HSV-1 strain E-377; [6]): ≤ 0.2 cm
- lesions smaller than those of HSV-1-infected untreated Group 2 (HSV-1 strain E-377; lesions developed from days 0 to 4): ~80%
- infection-associated symptoms and general status (HSV-1 strain E-377; throughout the experiment): posterior limb inflammation and skinniness were not observed
- reduction in the CMV viral load in the lungs versus placebo [4, 7]: 77%
- reduction in the CMV viral load in the salivary glands versus placebo [4, 7]: 70%
- CMV viral load versus placebo ([4]; infected mice): reduced
- Splenomegaly: Enlarged (mice affected / mice in group) (EBV [5]; [8]): 6/9
- Splenomegaly: Normal (mice affected / mice in group) (EBV [5]; [8]): 1/9
- Splenomegaly: Very enlarged (mice affected / mice in group) (EBV [5]; [8]): 2/9
- Tumor size 800-1500 mm^3 (mice affected / mice in group) (EBV [5]; [8]): 3/9
- Tumor size <800 mm^3 (mice affected / mice in group) (EBV [5]; [8]): 6/9
- Tumor size >1500 mm^3 (mice affected / mice in group) (EBV [5]; [8]): 0/9
- tumor growth induced by EBV (EBV [5]; SCID mice, 42 days): reduces tumor growth induced by EBV
- behaviour and survival of uninfected mice treated with LTB4 alone (EBV [5]; uninfected SCID mice, LTB4 i.p., 42-day period): behaved normally and survived throughout the 42-day period
